Literature values in patent US20080293821A1, “Cooling compositions” (priority 2007, published 2008).

Molecular target: T1, recombinant cold-menthol receptor TRPM8 (mTRPM8) (Mus musculus, UniProt Q8R4D5)
T1 construct: host or cells: HEK293 cells (recombinant expression)
Settings: mTRPM8 expressed in HEK293 cells, FLIPR; British Journal of Pharmacology 141, 737-745 (2004)

T1 sequence (Q8R4D5 whole entry): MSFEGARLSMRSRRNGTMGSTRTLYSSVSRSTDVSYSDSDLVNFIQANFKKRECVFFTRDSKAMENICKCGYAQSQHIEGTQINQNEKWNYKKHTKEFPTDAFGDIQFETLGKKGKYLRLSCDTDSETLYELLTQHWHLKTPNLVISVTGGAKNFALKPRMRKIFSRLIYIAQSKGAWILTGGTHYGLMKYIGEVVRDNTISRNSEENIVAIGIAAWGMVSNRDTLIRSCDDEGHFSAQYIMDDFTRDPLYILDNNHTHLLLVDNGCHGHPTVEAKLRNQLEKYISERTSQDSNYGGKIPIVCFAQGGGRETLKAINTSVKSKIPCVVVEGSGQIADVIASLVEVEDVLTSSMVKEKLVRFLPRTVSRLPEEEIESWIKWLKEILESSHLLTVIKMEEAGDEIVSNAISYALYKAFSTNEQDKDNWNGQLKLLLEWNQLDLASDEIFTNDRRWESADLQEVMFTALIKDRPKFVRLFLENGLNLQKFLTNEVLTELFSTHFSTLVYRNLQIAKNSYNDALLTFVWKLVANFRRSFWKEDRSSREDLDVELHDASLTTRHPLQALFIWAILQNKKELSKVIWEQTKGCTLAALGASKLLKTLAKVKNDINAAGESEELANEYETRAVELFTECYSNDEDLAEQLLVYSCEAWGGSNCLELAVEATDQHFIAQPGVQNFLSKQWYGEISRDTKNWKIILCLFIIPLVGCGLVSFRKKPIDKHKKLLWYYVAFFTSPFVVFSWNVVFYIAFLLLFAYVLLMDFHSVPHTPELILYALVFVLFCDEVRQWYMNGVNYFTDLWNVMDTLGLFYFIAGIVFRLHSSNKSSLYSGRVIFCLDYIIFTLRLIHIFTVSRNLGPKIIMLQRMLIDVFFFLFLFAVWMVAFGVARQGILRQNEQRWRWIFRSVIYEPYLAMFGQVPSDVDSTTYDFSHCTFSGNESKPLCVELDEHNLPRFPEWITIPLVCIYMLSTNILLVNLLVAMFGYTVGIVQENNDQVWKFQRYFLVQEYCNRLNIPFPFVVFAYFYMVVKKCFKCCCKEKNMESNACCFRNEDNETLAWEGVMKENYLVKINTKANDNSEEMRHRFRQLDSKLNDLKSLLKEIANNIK

| Structure (SMILES) | agonist activity on TRPM8 |
| --- | --- |
| C=C(C)[C@@H]1CC[C@@H](C)C[C@H]1O [Coolact P] | agonists |
| CC1CCC(C(C)C)C(OCC(O)CO)C1 (stereo not shown) [Cooling Agent 10] | agonists |
| CC1CCC(C(C)C)C2(C1)OCC(CO)O2 (stereo not shown) [Frescolat MGA, 6-isopropyl-9-methyl-1,4-dioxaspiro-(4,5)-decane-2-methanol] | agonists |
| CC1CCC(C(C)C)C(OC(=O)C(C)O)C1 (stereo not shown) [Frescolat ML, menthyl lactate] | agonists |
| C[C@@H]1CC[C@@H](C(C)(C)O)[C@H](O)C1 [PMD38] | agonists |
| CCNC(=O)C1CC(C)CCC1C(C)C (stereo not shown) [WS-3, N-Ethyl-p-menthane-3-carboxamide] | agonists |
| CNC(=O)C(C)(C(C)C)C(C)C [WS-23, 2-Isopropyl-N,2,3-trimethylbutyramide] | agonists |
| CC(C)=CCC/C(C)=C/CO [geraniol] | agonists |
| CC(CC=O)CCCC(C)(C)O (stereo not shown) [hydroxycitronellal] | agonists |
| C=CC(C)(O)CCC=C(C)C (stereo not shown) [linalool] | agonists |
